The source of these data is patent publication US9462793B2, “Mouse carrying a knock-out mutation of the Qpct-gene” (PROBIODRUG AG, priority 2008, dated 2016).

The target in data set [1] is T1, Qpct (Homo sapiens, UniProt Q16769). The experiment in a line: Inhibition of Qpct by chelators (metal dependence). The format is biochemical. The settings on record: human Qpct and other animal Qpcts.
The test system of data set [2] is mammalian Qpct. Particulars: cited from earlier work.
A short description of data set [3]: pKa of α-amino group determined by titration. The format is physicochemical. The text has this: (§1) However, in the pH-range of about 5.2-6.5, between their respective pKa-values, the two functional groups are present both in non-ionized forms, in concentrations of about 1-10% (—NH2) or 10-1% (—COOH) of total N-terminal Glu-containing peptide. As a result, over a mildly acidic pH-range species of N-terminal Glu-peptides are present which carry both groups uncharged, and, therefore, it is possible that Qpct could stabilize the intermediate of intramolecular cyclization into the pGlu-peptide, i.e. if the γ-carboxylic group is protonated, the carbonyl carbon is electrophilic enough to allow nucleophilic attack by the unprotonated α-amino group. At this pH the hydroxyl ion functions as a leaving group. These assumptions are corroborated by the pH-dependence data obtained for the Qpct catalyzed conversion of Glu-βNA. In contrast to glutamine conversion of Gln-βNA by Qpct, the pH-optimum of catalysis shifts to the acidic range around pH 6.0, i.e. the pH-range, in which substrate molecule species are simultaneously abundant carrying a protonated 7-carboxyl and unprotonated α-amino group.

Data set [4] has as its target T1, Qpct. The experiment in a line: pH-dependence of Qpct catalyzed conversion of Glu-βNA. The format is biochemical.
Source text: as §1

The conditions of data set [5]: cited from earlier work.

T1 sequence (Q16769 29-361): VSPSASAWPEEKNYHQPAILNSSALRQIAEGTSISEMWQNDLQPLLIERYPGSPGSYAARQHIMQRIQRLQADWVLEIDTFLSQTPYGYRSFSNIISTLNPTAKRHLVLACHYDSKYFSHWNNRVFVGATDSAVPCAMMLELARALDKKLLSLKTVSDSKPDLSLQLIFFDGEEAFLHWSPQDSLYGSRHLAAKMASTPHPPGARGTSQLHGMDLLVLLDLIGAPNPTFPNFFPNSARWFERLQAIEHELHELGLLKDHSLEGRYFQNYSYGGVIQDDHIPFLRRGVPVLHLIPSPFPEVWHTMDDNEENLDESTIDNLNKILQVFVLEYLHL

As to `c1cnc2c(c1)ccc1cccnc12` [1,10-phenanthroline], the “inhibition characteristics of Qpct” value in data set [1] is listed as “inhibition”. Moreover, the “Inhibition of a mammalian Qpct” value in data set [2] is on record as “Inhibition of a mammalian Qpct was only detected”. Turning to `Oc1cccc2cccnc12` [8-hydroxy-quinoline], in data set [1], the “inhibition characteristics of Qpct” value is given as “inhibition”.

Take `O=C(O)CN(CCN(CC(=O)O)CC(=O)O)CC(=O)O` [EDTA]: the “Inhibition of a mammalian Qpct” value in data set [2] is given as “did not inhibit”.

Consider `N[C@@H](CCC(=O)O)C(=O)Nc1ccc2ccccc2c1` [Glu-βNA], for which the “pKa of the α-amino group, determined by titration” value in data set [3] turned out to be 7.57±0.05. For the same compound, in data set [4], the “kinetically determined pKa-value” is on record as 7.55+/−0.02. On to `N[C@@H](CCC(=O)O)C(=O)O` [Glutamate], for which, in data set [5], the “pKa-value for the α-amino moiety” value is roughly 7.5 and the “pKa-value for the γ-carboxylic moiety” value is “about 4.2”.

For `O=C(O)c1cccc(C(=O)O)n1` [dipicolinic acid], the “inhibition characteristics of Qpct” value in data set [1] was “inhibition”.

Regarding reduced 6-methylpterin, the “Inhibition of a mammalian Qpct” value in data set [2] was “Inhibition of a mammalian Qpct was only detected”.
